For assay [1], the system named is human platelets. Nature of the assay: Aggregate size after ADP-induced aggregation of human PRP (light microscopy). The note with it: 100 μM. In kind it is cell-based. As for the experimental part: (§1) Human PRP was incubated with peptide antagonists (100 μmol/L, 5 min, 37 °C) or vehicle and stimulated with 10 μmol/L ADP under constant stirring at 1000 rpm (37 °C). Optical aggregation was monitored in a Chrono-Log Lumi-aggregometer (Chrono-Log Corporation, Havertown, PA, USA).
After 15 min, aggregates were fixed in 1 volume 0.5% glutaraldehyde in PBS and applied to microscope slides. Aggregates were dehydrated with methanol and stained with May-Grünwald/Giemsa. The aggregate size was measured by light microscopy equipped with a JAI-CCD camera (Copenhagen, Denmark) coupled to a Matrox frame grabber (Matrox Electronic Systems Ltd., Dorval, Quebec, Canada) using the ‘watershed’ function of the Optimas 6.2 software (Optimas Inc., Seattle, WA, USA). Results were expressed as mean aggregate size (μm^2).

Assay [2] deals with human platelets. The assay is described as follows: ADP-induced platelet aggregation in human platelet-rich plasma (optical aggregometry). In kind it is cell-based. The note with it: 10 μM ADP.
Text: Freshly drawn venous blood from healthy volunteers was obtained through the Mini Donor Service, a blood donation facility for research purposes, that is approved by the Medical Ethics Committee of the University Medical Center Utrecht (protocol number 07-125). All donors provided written informed consent, in accordance with the Declaration of Helsinki for blood collection through this service. All participant information is kept confidential, and only Mini Donor Service personnel have access to the information provided. The donors were free of medication for at least two weeks before blood collection. Overnight fasting before blood collection was not necessary. Blood was collected into 0.1 volume 130 mmol/L trisodium citrate and was processed the same day and within 6 h. For aggregation studies, platelet-rich plasma (PRP) was prepared by centrifugation (150 g, 15 min, 20 °C) and adjusted to a final concentration of 2×10^11 platelets/L with platelet-poor plasma prepared from the remaining blood (1100 g, 10 min, 20 °C). […]
as §1

Assay [3] concerns the target T1, P-selectin (Homo sapiens, UniProt P16109).
T1 construct: purchased R&D systems (Minneapolis, MN, USA)
The assay is described as follows: Competition of [3H]-CE-labeled sulfatide liposome binding to P-selectin-coated wells. The note with it: for Change in Sf42 liposome binding to P-selectin: Sf42 liposomes 100 μg/mL; for Change in Sf57 liposome binding to P-selectin: Sf57 liposomes 100 μg/mL; for Change in Sf28 liposome binding to P-selectin: Sf28 liposomes 100 μg/mL; for EC50: Sf28 liposomes (28% sulfatide). As for the experimental part:
Liposomes were prepared by sonication as follows. Egg yolk phosphatidylcholine, cholesterol, and sulfatides, all dissolved in chloroform/methanol (1:1, v/v), were mixed at weight ratios of 4:0.8:0 (named Sf0), 4:0.8:1.3 (Sf21), 2.5:0.8:1.3 (Sf28), 1:0.8:1.3 (Sf42), and 0.2:0.8:1.3 mg/mL (Sf57). The Sf numbers indicate the number of sulfatides as a percentage of total lipid weight. A tracer amount of [^3H]-cholesteryl oleate ([^3H]-CE; 1.3 × 10^8 dpm (disintegrations per minute)) was added, and the organic solvent was evaporated by a stream of nitrogen. The resulting lipid layer was vortexed in 1 mL phosphate buffered saline (PBS) and subsequently sonicated for 40 min at 54 °C using a Soniprep 150 (MSE Scientific Instruments, Crawley, UK) at 18 µm amplitude. Particle sizes were determined by photon correlation spectroscopy (Malvern 4700 C System, Malvern Instruments, Malvern, UK) at 25 °C and a 90° angle between laser and detector. […] Liposomes were stored at 4 °C under argon and used for characterization and metabolic studies within 7 days following preparation, during which no physicochemical changes occurred. As the liposomes were equal in size and incorporation of the radioactive label was quantitative, the specific activity of each sulfatide-bearing liposome was calculated as the amount of [^3H]-cholesteryloleate (dpm) divided by the total lipid content (ng).
Fc-specific goat anti-human IgG (10 μg/mL) was coated overnight at 4 °C in a high binding 96-well plate (Costar, Corning, UK) in coating buffer (50 mM NaHCO3, pH 9.6). Then, wells were washed with assay buffer (20 mmol/L HEPES, 150 mmol/L NaCl, 1 mmol/L CaCl2, pH 7.4) and incubated for 1 h at 37 °C with blocking buffer (3% bovine serum albumin (BSA) in assay buffer). After washing, wells were incubated with fusion proteins of IgG and P-, E-, or L-selectin (0.3 μg/mL, 2 h, 37 °C), washed with assay buffer, and subsequently incubated for 2 h at 4 °C with a concentration range of [^3H]-CE-labeled liposomes (0–800 µg lipid per mL assay buffer containing 0.2% BSA). For competition studies, labeled liposomes (1 × 10^5 dpm/well) were incubated in the presence of peptides or antibodies at the indicated concentrations. After removal of unbound liposomes by washing four times with assay buffer, bound liposomes were collected in 2-propanol/butanol/water (50:25:20, by vol.) and counted for radioactivity using a scintillation counter. Since the sulfatide liposomes were equal in size, the recovered amount of [^3H]-CE could be used to calculate the binding capacity of P-selectin for the sulfatide liposomes, as well as the recovered amount of lipid (ng/well) based on the specific activity.

Assay [4] concerns the target P-selectin binding to HL60 cells (PSGL-1) (Homo sapiens, UniProt P16109). As to conditions: displacement of P-selectin binding to HL60 cells; ref Molenaar et al. [28]; cited from earlier work.
Assay [5] concerns the target human P-selectin-IgG (human) (UniProt P16109).
For assay [6], the target named is T2, human P-selectin-IgG (human, UniProt P16109 42-771).
T2 construct: P-selectin, human, fused to IgG (Fc); Captured in the wells through Fc-specific goat anti-human IgG; also called human Fc fusion protein of P-selectin; fusion protein of IgG and P-selectin; source: bought: R&D systems
T2 sequence (looked up): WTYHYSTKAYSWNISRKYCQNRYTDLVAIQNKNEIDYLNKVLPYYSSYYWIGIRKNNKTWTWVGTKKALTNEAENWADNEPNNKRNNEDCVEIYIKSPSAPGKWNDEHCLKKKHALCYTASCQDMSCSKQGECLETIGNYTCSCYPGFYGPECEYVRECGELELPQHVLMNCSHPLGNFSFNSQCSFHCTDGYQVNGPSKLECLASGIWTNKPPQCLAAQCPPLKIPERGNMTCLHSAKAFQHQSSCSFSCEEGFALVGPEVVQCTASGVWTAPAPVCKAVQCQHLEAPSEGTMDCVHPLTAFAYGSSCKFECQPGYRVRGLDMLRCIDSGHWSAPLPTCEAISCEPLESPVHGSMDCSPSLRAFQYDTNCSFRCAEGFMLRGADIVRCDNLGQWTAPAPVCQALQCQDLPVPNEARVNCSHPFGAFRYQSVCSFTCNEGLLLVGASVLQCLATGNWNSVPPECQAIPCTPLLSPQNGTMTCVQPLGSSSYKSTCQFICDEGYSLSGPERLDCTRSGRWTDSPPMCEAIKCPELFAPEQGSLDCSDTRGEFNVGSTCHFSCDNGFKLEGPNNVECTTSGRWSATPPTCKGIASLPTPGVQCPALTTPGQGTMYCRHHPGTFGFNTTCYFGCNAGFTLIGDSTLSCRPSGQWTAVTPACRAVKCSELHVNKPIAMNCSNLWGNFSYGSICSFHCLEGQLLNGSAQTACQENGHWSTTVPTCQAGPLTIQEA
The assay is described as follows: radioligand binding; displacement: P-selectin-IgG (0.3 ug/mL) captured on Fc-specific goat anti-human IgG in 96-well plates; [3H]-cholesteryl oleate-labelled Sf28 sulfatide liposomes (1 x 10^5 dpm/well) with increasing amounts of peptide; 2 h, 4 C; 20 mmol/L HEPES, 150 mmol/L NaCl, 1 mmol/L CaCl2, pH 7.4, 0.2% BSA. As to conditions: both partners purified.

Positions of bridges follow the written chain, without caps; N, C: chain ends. Residues, ends and D or L forms follow the SMILES beside them. No end group written: not given here.

Sequence of P-selectin binding to HL60 cells (PSGL-1) (P16109 42-830 limits assumed): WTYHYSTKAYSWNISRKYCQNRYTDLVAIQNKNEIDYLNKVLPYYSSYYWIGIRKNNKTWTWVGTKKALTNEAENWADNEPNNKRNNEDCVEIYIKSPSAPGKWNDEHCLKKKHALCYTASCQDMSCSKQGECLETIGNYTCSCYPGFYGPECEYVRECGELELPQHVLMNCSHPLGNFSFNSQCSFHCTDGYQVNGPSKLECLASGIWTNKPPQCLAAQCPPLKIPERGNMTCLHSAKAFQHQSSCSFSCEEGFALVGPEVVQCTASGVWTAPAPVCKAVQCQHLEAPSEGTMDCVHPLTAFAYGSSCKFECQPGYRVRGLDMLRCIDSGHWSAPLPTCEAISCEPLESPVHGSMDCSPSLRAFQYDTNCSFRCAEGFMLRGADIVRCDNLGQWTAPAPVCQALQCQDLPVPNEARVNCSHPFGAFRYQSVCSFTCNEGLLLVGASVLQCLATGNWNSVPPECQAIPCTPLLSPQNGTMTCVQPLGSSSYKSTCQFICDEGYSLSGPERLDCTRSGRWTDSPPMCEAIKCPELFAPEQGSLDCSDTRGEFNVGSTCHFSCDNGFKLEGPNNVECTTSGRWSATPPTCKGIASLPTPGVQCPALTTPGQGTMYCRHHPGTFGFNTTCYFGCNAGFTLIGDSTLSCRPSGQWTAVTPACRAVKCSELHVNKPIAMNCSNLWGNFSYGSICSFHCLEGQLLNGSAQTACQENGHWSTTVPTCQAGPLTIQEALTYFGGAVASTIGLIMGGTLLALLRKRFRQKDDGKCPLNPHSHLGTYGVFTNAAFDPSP

With `CC(C)[C@@H]1NC(=O)[C@H](CC(=O)O)NC(=O)[C@H](C(C)C)NC(=O)[C@H](Cc2c[nH]c3ccccc23)NC(=O)[C@H](CCC(=O)O)NC(=O)[C@H](C(C)C)NC(=O)[C@H](CC(=O)O)NC(=O)[C@@H](N)CSSC[C@@H](C(=O)O)NC(=O)[C@H](CO)NC1=O` [CDVEWVDVSC] (H-CDVEWVDVSC-OH; disulfide 1-10 (inferred); N-terminus and C-terminus assumed), the “Reduction of mean aggregate size” value in assay [1] (ADP-induced aggregation of human PRP) is “about 90%”. The “Aggregates smaller than 1000 μm^2” value in assay [1] (15% in the absence of inhibitors) amounted to 76%. Also, the “Initial slope of platelet aggregation” value in assay [2] (100 μM peptide) was “remained unaltered”. In assay [2] (100 µM peptide, human PRP, maximum aggregation), the “Aggregation: percentage inhibition of platelet aggregation” value was 43% (p<0.001). In assay [3] (0.5 µM), the “Change in Sf42 liposome binding to P-selectin” value is “did not affect” and the “Change in Sf57 liposome binding to P-selectin” value is “did not affect”.

With `O=C(O)CN(CCN(CC(=O)O)CC(=O)O)CC(=O)O` [EDTA, reference compound], in assay [3] (10 mM), the “Change in Sf28 liposome binding to P-selectin” value is on record as −79%, the “Change in Sf42 liposome binding to P-selectin” value is listed as “did not affect” and the “Change in Sf57 liposome binding to P-selectin” value is reported as “did not affect”.

One may read the EC50 as the concentration at which the effect is half-maximal. As for AVEWVDVS [AVEWVDVS], the half-maximal effective concentration (EC50) was 12 µM in assay [4] and above 1000 µM in assay [3].

For DAEWVDVS [DAEWVDVS], the EC50 in assay [4] was 19 µM; in assay [3], above 1000 µM.

DVAWVDVS [DVAWVDVS]: the EC50 was 41 µM in assay [4] and above 1000 µM in assay [3].

Regarding DVEAVDVS [DVEAVDVS], the concentration giving a half-maximal response (EC50) in assay [4] and in assay [3] was above 1000 µM throughout.

On to DVEWADVS [DVEWADVS], for which the EC50 in assay [4] and in assay [3] was above 1000 µM in each case.

With DVEWVAVS [DVEWVAVS], the EC50 in assay [4] and in assay [3] was above 1000 µM throughout.

As to DVEWVDAS [DVEWVDAS], the concentration giving a half-maximal response (EC50) in assay [4] and in assay [3] was above 1000 µM throughout.

Take DVEWVDVA [DVEWVDVA]: the half-maximal effective concentration (EC50) in assay [4] was 7 µM.

For DVEWVDVS [DVEWVDVS], the concentration giving a half-maximal response (EC50) in assay [4] is 11 µM; in assay [3] it was 12 µM.

Usually IC50 stands for the concentration that gives 50% inhibition. A lower IC50 goes with greater potency. In the case of EWVDV [EWVDV], the EC50 is 12 µM in assay [4] and above 1000 µM in assay [3]. In assay [3] (abstract), this molecule registered an IC50 above 1000 µM.

With EWVKV [EWVKV], the EC50 in assay [4] and in assay [3] was above 1000 µM each time.

As to VEWVDV [VEWVDV], the figures for the EC50 in assay [4] and in assay [3] were 13 µM and above 1000 µM, respectively.

For “rPSGL-1-Ig: recombinant PSGL-1 immunoglobulin fusion, P-selectin inhibitor”, in assay [3] (15 µg/mL), the “Change in Sf28 liposome binding to P-selectin” value is recorded as −88%, the “Change in Sf42 liposome binding to P-selectin” value is listed as −97% and the “Change in Sf57 liposome binding to P-selectin” value is reported as −68%.

B1: EWVDV (peptide)
peptide: EWVDV
B1 returned a Percentage inhibition of ADP-induced aggregation of human platelet-rich plasma at 100 uM peptide (sulfatide/P-selectin-dependent aggregation) in assay [5] of 12%.

B2: DVEWVDVA (peptide)
peptide: DVEWVDVA
notes: also called elongated EWVDV peptide
In assay [6], B2 came in with an EC50 of 8 µM.

B3: EWVKV (peptide)
peptide: EWVKV
In assay [5], B3 showed a Percentage inhibition of ADP-induced aggregation of human platelet-rich plasma at 100 uM peptide (sulfatide/P-selectin-dependent aggregation) of 0%.

B4: CDVEWVDVSC (peptide)
peptide: CDVEWVDVSC
notes: also called peptide antagonist; elongated EWVDV peptide
B4 showed a concentration giving a half-maximal response (EC50) in assay [6] of 0.2 µM.
